Results taken from PubChem BioAssay AID1963963 (Molecular Pharmacology Branch, DTP, NCI, 2024).

Tested on: 958667-338-R-J2-PDC tumor spheroids viability
Assay: Anticancer human tumor 958667-338-R-J2-PDC patient-derived colon adenocarcinoma cell line growth inhibition [PI3K]
Conditions: spheroids with HUVEC and MSC; for IC50: curve of first compound; for viability, T/C: stronger effect = lower value
Method in brief: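 Tumor cells were combined with HUVEC and MSCs into spheroids, then dosed with PI3K-inhibitor combinations over half-log ranges capped near clinical Cmax or 10 microM.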

[1] = second compound 0.00316 µM, first compound 0.0316 µM
[2] = second compound 0.00316 µM, first compound 0.1 µM
[3] = second compound 0.00316 µM, first compound 0.316 µM
[4] = second compound 0.00316 µM, first compound 1 µM
[5] = second compound 0.00316 µM, first compound 3.16 µM
[6] = second compound 0.00316 µM, first compound 10 µM
[7] = second compound 0.01 µM, first compound 0.0316 µM
[8] = second compound 0.01 µM, first compound 0.1 µM
[9] = second compound 0.01 µM, first compound 0.316 µM
[10] = second compound 0.01 µM, first compound 1 µM
[11] = second compound 0.01 µM, first compound 3.16 µM
[12] = second compound 0.01 µM, first compound 10 µM
[13] = second compound 0.0316 µM, first compound 0.0316 µM
[14] = second compound 0.0316 µM, first compound 0.1 µM
[15] = second compound 0.0316 µM, first compound 0.316 µM
[16] = second compound 0.0316 µM, first compound 1 µM
[17] = second compound 0.0316 µM, first compound 3.16 µM
[18] = second compound 0.0316 µM, first compound 10 µM
[19] = second compound 0.1 µM, first compound 0.0316 µM
[20] = second compound 0.1 µM, first compound 0.1 µM
[21] = second compound 0.1 µM, first compound 0.316 µM
[22] = second compound 0.1 µM, first compound 1 µM
[23] = second compound 0.1 µM, first compound 3.16 µM
[24] = second compound 0.1 µM, first compound 10 µM
[25] = second compound 0.316 µM, first compound 0.0316 µM
[26] = second compound 0.316 µM, first compound 0.1 µM
[27] = second compound 0.316 µM, first compound 0.316 µM
[28] = second compound 0.316 µM, first compound 1 µM
[29] = second compound 0.316 µM, first compound 3.16 µM
[30] = second compound 0.316 µM, first compound 10 µM
[31] = second compound 1 µM, first compound 0.0316 µM
[32] = second compound 1 µM, first compound 0.1 µM
[33] = second compound 1 µM, first compound 0.316 µM
[34] = second compound 1 µM, first compound 1 µM
[35] = second compound 1 µM, first compound 3.16 µM
[36] = second compound 1 µM, first compound 10 µM
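Also: spheroids exposed to compounds for seven days before readout.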

For `CC(C)NCC(C(=O)N1CCN(c2ncnc3c2C(C)CC3O)CC1)c1ccc(Cl)cc1` (stereo not drawn) + COc1c(OCCCN2CCOCC2)ccc2c3n(c(=NC(=O)c4cnc(N)nc4)nc12)CCN3, the IC50 (second compound 0.00316 µM) was over 10000 nM, the IC50 (second compound 0.01 µM) was over 10000 nM and the IC50 (second compound 0.0316 µM) was over 10000 nM. For the same compound, the IC50 (second compound 0.1 µM) was 4020 nM, the IC50 (second compound 0.316 µM) was under 31.6 nM and the IC50 (second compound 1 µM) was under 31.6 nM. For the same compound, the viability, T/C [1] was 94.4%, the viability, T/C [2] was 88% and the viability, T/C [3] was 74%. The viability, T/C [4] was 95.7%, the viability, T/C [5] was 90.7% and the viability, T/C [6] was 60.2%. The viability, T/C [7] was 97.8%, the viability, T/C [8] was 73.9% and the viability, T/C [9] was 69%. It also gave a viability, T/C [10] of 100%, a viability, T/C [11] of 54.8% and a viability, T/C [12] of 66.2%. For the same compound, the viability, T/C [13] was 68.7%, the viability, T/C [14] was 69.3% and the viability, T/C [15] was 67.8%. It also gave a viability, T/C [16] of 77.7%, a viability, T/C [17] of 71.3% and a viability, T/C [18] of 50.6%. It also gave a viability, T/C [19] of 61.6%, a viability, T/C [20] of 43.2% and a viability, T/C [21] of 67.4%. For the same compound, the viability, T/C [22] was 60.5%, the viability, T/C [23] was 51.1% and the viability, T/C [24] was 37.4%. The viability, T/C [25] was 36.9%, the viability, T/C [26] was 35.3% and the viability, T/C [27] was 29.8%. The viability, T/C [28] was 38.1%, the viability, T/C [29] was 27.2% and the viability, T/C [30] was 23.1%. For the same compound, the viability, T/C [31] was 17.6%, the viability, T/C [32] was 18.7% and the viability, T/C [33] was 15.4%. For the same compound, the viability, T/C [34] was 19.5%, the viability, T/C [35] was 16.2% and the viability, T/C [36] was 14.8%.
`CCN1CCN(Cc2ccc(Nc3ncc(F)c(-c4cc(F)c5nc(C)n(C(C)C)c5c4)n3)nc2)CC1` + COc1c(OCCCN2CCOCC2)ccc2c3n(c(=NC(=O)c4cnc(N)nc4)nc12)CCN3 was tested, and the IC50 (second compound 0.00316 µM) was over 1000 nM, the IC50 (second compound 0.01 µM) was over 1000 nM and the IC50 (second compound 0.0316 µM) was 344 nM. For the same compound, the IC50 (second compound 0.1 µM) was 4.7 nM, the IC50 (second compound 0.316 µM) was under 3.16 nM and the IC50 (second compound 1 µM) was under 3.16 nM. The viability, T/C (second compound 0.00316 µM, first compound 0.00316 µM) was 100%, the viability, T/C (second compound 0.00316 µM, first compound 0.01 µM) was 106% and the viability, T/C [1] was 82.9%. It also gave a viability, T/C [2] of 67.2%, a viability, T/C [3] of 68.3% and a viability, T/C [4] of 64.3%. For the same compound, the viability, T/C (second compound 0.01 µM, first compound 0.00316 µM) was 69.7%, the viability, T/C (second compound 0.01 µM, first compound 0.01 µM) was 87.8% and the viability, T/C [7] was 87.8%. For the same compound, the viability, T/C [8] was 65.5%, the viability, T/C [9] was 57.4% and the viability, T/C [10] was 51.5%. The viability, T/C (second compound 0.0316 µM, first compound 0.00316 µM) was 67.5%, the viability, T/C (second compound 0.0316 µM, first compound 0.01 µM) was 61.2% and the viability, T/C [13] was 58.6%. It also gave a viability, T/C [14] of 57.3%, a viability, T/C [15] of 48.4% and a viability, T/C [16] of 46.1%. It also gave a viability, T/C (second compound 0.1 µM, first compound 0.00316 µM) of 53.9%, a viability, T/C (second compound 0.1 µM, first compound 0.01 µM) of 41.4% and a viability, T/C [19] of 40.1%. It also gave a viability, T/C [20] of 39%, a viability, T/C [21] of 33.6% and a viability, T/C [22] of 32.1%. The viability, T/C (second compound 0.316 µM, first compound 0.00316 µM) was 34.4%, the viability, T/C (second compound 0.316 µM, first compound 0.01 µM) was 33.4% and the viability, T/C [25] was 33.8%. The viability, T/C [26] was 22.3%, the viability, T/C [27] was 22.2% and the viability, T/C [28] was 25.3%. The viability, T/C (second compound 1 µM, first compound 0.00316 µM) was 16.9%, the viability, T/C (second compound 1 µM, first compound 0.01 µM) was 14.7% and the viability, T/C [31] was 16.5%. It also gave a viability, T/C [32] of 14.3%, a viability, T/C [33] of 16.6% and a viability, T/C [34] of 18.1%.
In the case of `Cn1ncc(Cl)c1-c1cc(C(=O)NC(CN)Cc2cccc(F)c2)sc1Cl` (stereo not drawn) + COc1c(OCCCN2CCOCC2)ccc2c3n(c(=NC(=O)c4cnc(N)nc4)nc12)CCN3, the IC50 (second compound 0.00316 µM) is reported as 3410 nM, the IC50 (second compound 0.01 µM) is reported as 3240 nM and the IC50 (second compound 0.0316 µM) is reported as 1700 nM. The IC50 (second compound 0.1 µM) was 696 nM, the IC50 (second compound 0.316 µM) was under 31.6 nM and the IC50 (second compound 1 µM) was under 31.6 nM. The viability, T/C [1] was 89.1%, the viability, T/C [2] was 109% and the viability, T/C [3] was 75.5%. For the same compound, the viability, T/C [4] was 76.2%, the viability, T/C [5] was 46.4% and the viability, T/C [6] was 43%. It also gave a viability, T/C [7] of 88.9%, a viability, T/C [8] of 76.7% and a viability, T/C [9] of 87.8%. The viability, T/C [10] was 75.5%, the viability, T/C [11] was 50.6% and the viability, T/C [12] was 32%. The viability, T/C [13] was 90.3%, the viability, T/C [14] was 74.6% and the viability, T/C [15] was 76.2%. It also gave a viability, T/C [16] of 58.6%, a viability, T/C [17] of 38.9% and a viability, T/C [18] of 26.5%. The viability, T/C [19] was 59.4%, the viability, T/C [20] was 65.7% and the viability, T/C [21] was 64.5%. The viability, T/C [22] was 43.5%, the viability, T/C [23] was 27.9% and the viability, T/C [24] was 21.1%. The viability, T/C [25] was 44.9%, the viability, T/C [26] was 38.8% and the viability, T/C [27] was 32.9%. It also gave a viability, T/C [28] of 31.6%, a viability, T/C [29] of 21.1% and a viability, T/C [30] of 14.1%. For the same compound, the viability, T/C [31] was 20.8%, the viability, T/C [32] was 18.2% and the viability, T/C [33] was 19.9%. It also gave a viability, T/C [34] of 20.5%, a viability, T/C [35] of 15.9% and a viability, T/C [36] of 12.5%.
In the case of `Cn1nccc1Nc1nccc(-c2ccn(C(CO)c3ccc(Cl)c(F)c3)c(=O)c2)n1` (stereo not drawn) + COc1c(OCCCN2CCOCC2)ccc2c3n(c(=NC(=O)c4cnc(N)nc4)nc12)CCN3, the IC50 (second compound 0.00316 µM) is reported as 9710 nM, the IC50 (second compound 0.01 µM) is reported as 7700 nM and the IC50 (second compound 0.0316 µM) is reported as 2720 nM. The IC50 (second compound 0.1 µM) was 1270 nM, the IC50 (second compound 0.316 µM) was under 31.6 nM and the IC50 (second compound 1 µM) was under 31.6 nM. For the same compound, the viability, T/C [1] was 93.8%, the viability, T/C [2] was 98.4% and the viability, T/C [3] was 97.9%. The viability, T/C [4] was 83.5%, the viability, T/C [5] was 67.1% and the viability, T/C [6] was 49.3%. The viability, T/C [7] was 98.6%, the viability, T/C [8] was 100% and the viability, T/C [9] was 99.1%. For the same compound, the viability, T/C [10] was 83.3%, the viability, T/C [11] was 81.6% and the viability, T/C [12] was 41.2%. The viability, T/C [13] was 80.3%, the viability, T/C [14] was 86.7% and the viability, T/C [15] was 83.1%. It also gave a viability, T/C [16] of 57.1%, a viability, T/C [17] of 52.3% and a viability, T/C [18] of 25.6%. For the same compound, the viability, T/C [19] was 58.6%, the viability, T/C [20] was 55.4% and the viability, T/C [21] was 60%. The viability, T/C [22] was 55.6%, the viability, T/C [23] was 27.7% and the viability, T/C [24] was 12%. The viability, T/C [25] was 30.9%, the viability, T/C [26] was 42.4% and the viability, T/C [27] was 28.8%. It also gave a viability, T/C [28] of 31.9%, a viability, T/C [29] of 15.4% and a viability, T/C [30] of 1.75%. The viability, T/C [31] was 16.9%, the viability, T/C [32] was 13.1% and the viability, T/C [33] was 18.1%. The viability, T/C [34] was 13.6%, the viability, T/C [35] was 3.23% and the viability, T/C [36] was 1.67%.
